From US20200270216A1, “COMPOSITIONS AND METHODS FOR INHIBITING N-SMASE2” (The Regents of the University of California, priority 2017, published 2020)
“Also recorded” adds a separate entry of the source.

Columns and labels:
[1] = test system: P2-seeded tau biosensor cells; test: EV purification and characterization (immunoblot of exosome markers, nanoparticle tracking analysis); assay type: cell-based
Excerpt: Extracellular vesicles (EVs) were purified from the cell culture medium using Exo-Quick-TC exosome purification kit (SBI, EXOTC10A-1) according to the manufacturing instructions. Immunoblot analysis of the EV fractions was done by 10-20% Tris-Glycine gel in non-reduced conditions, transferred to PVDF membrane and probed with antibodies against CD63 (ThermoFisher, 10628D), followed by HRP-conjugated secondary antibodies. Chemiluminescent signals were obtained with Super Signal West Femto substrate (Thermo Scientific Pierce 34,095) and detected using a BioSpectrum 600 imaging system and quantified using VisionWorks Version 6.6A software (UVP; Upland, Calif.). […] Inhibition of nSMase2 activity in cell extracts of confluent tau biosensors was confirmed by nSMase2 activity assay analogous to the one described in Example 2.
Our analysis confirmed that nSMase2 inhibitors suppress release of EVs from P2-seeded tau biosensor cells. […] EV samples purified from the same number of donor cells were analyzed per each group. Purified EVs were imaged by transmission electron microscopy (FIG. 5C). Size distribution of particles in the samples were assessed by nanoparticle tracking analysis (FIG. 5D). WB analysis for exosome markers also confirmed decrease in the exosome-specific marker expression (FIG. 5E).
Donor cells were grown in medium with exosome-depleted FBS (ThermoFisher, A2720803) for 48 hours with or without compounds, cell culture medium was collected and EVs purified using ExoQuick-TC kit (SBI biosciences). For quality control, small amounts of purified EVs were fixed on a copper mesh in glutaraldehyde/paraformaldehyde solution, stained with 2% uranyl acetate solution and imaged on a JEOL 100CX electron microscope at 29,000 times magnification. […] Chemiluminescent signals were obtained with Super Signal West Femto substrate (Thermo Scientific Pierce 34095) and detected using a BioSpectrum 600 imaging system and quantified using VisionWorks Version 6.6A software (UVP; Upland, Calif.).

Thy1-aSyn mice = test: Initial efficacy in Thy1-aSyn mice, aSyn immunofluorescence in substantia nigra; assay type: in vivo; conditions: Thy-1 aSyn mice, 100 mg/kg/day oral, 5 weeks
Protocol: Mice overexpressing human wild-type a-synuclein under control of the Thy-1 promoter (Thy1-aSyn mice) and control C57B1/6 mice were housed under a 12-hour light/dark cycle and had access to standard chow ad libitum. […] Two hours after the last dose, mice were euthanized by ketamine/xylazine over-anesthesia followed by cardiac puncture and saline transcardial perfusion. Brain tissue from individual mice were dissected.
All staining procedures and data collection were performed by investigators blinded to treatment. Double-immunofluorescence for Clone 42 Anti-aSyn/TH in SN (substantia nigra). Analysis of a-synuclein and tyrosine hydroxylase (TH, the marker of dopaminergic neurons) levels was performed in serially sectioned, free-floating vibratome sections. […]
For the quantification of aSyn and TH fluorescent immunolabeling images of immunofluorescence-labeled sections were acquired using an Agilent (Santa Clara, Calif.) microarray scanner equipped with a krypton/argon laser (647 nm) at 10 μm resolution with the photomultiplier tube set at 5% for aSyn and 10% for TH. Immunofluorescence intensity was measured using ImageJ in the appropriate region of interest. TH staining was quantified in the SN pars compact and SN pars reticulate. […]

## O=c1[nH]c(=S)[nH]c(-c2ccccc2)c1Cc1c(O)ccc2ccccc12 [cambinol]
[1]; 10 μM, 60 hours, Western blot (FIG. 3C)
  levels of exosomal marker CD63 in cell medium EV fraction: Decrease
[1]; 50 μM, 48 hours, nanoparticle tracking analysis
  release of EVs from P2-seeded donor cells: released less EVs; also recorded: more effective than the nSMase2 inhibitor GW4869
Thy1-aSyn mice
  aSyn levels in the substantia nigra (SN): trend to decrease
